Assay results: PMC10247784, “Physiological activation of human and mouse bitter taste receptors by bile acids” (Communications Biology, 2023)
Several values for one entry are separate records, joined by “and”; a condition that tells them apart may be missing. Equal entries are not always repeated.

Target: T1, human TAS2R14 (Homo sapiens, UniProt Q9NYV8)
T1 construct: expressed in transfected cells; host or cells: HEK293T-Gα16gust44
T1 sequence (Q9NYV8 1-317): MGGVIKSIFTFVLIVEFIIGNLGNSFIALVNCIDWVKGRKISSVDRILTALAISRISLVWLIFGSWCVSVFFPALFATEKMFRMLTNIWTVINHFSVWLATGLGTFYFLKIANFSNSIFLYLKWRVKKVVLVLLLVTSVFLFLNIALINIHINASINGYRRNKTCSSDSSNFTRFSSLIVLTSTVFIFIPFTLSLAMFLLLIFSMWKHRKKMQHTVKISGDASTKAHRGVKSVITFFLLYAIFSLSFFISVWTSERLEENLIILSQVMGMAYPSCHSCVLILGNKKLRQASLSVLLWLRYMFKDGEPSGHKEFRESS
Assay: Calcium imaging assay (FLIPR), HEK293T-Gα16gust44 cells transfected with human TAS2R14
Format: cell-based
Details: for RLU: TAS2R14 trace
Procedure: This set of bile acids was chosen because of their commercial availability in high purities, their diversity within the class of bile acids and their previous detection and quantitation in human blood. Stock solutions were prepared in DMSO.
As basal growth medium for the HEK293T-Gα16gust44 cell line[17],[59] served Dulbecco’s modified eagle medium (DMEM) (Thermo Fisher Scientific, Darmstadt, Germany) supplemented with 10 % fetal bovine serum (Sigma-Aldrich, Steinheim, Germany), 2 mM L-glutamine (Sigma-Aldrich, Steinheim, Germany), 100 units/ml penicillin (Sigma Aldrich, Steinheim, Germany) and 100 µg/ml streptomycin (Sigma Aldrich, Steinheim, Germany). Growth conditions were 37 °C, 5 % CO2 and saturated air-humidity[60].
HEK293T-Gα16gust44 cells were seeded on poly-D-lysine (10 µg/ml) coated 96-well plates to reach a confluence of 40-60 % the next day. For transient transfection 150 ng of plasmid DNA containing the receptor of interest and 0.3 µl lipofectamine 2000 (Thermo Fisher Scientific, Darmstadt, Germany) per well were used and transfection took place according to the manual of lipofectamine 2000. […] The empty vector DNA (mock) was transfected as negative control[14],[41].
Cells were loaded using the calcium-sensitive fluorescent dye Fluo-4-AM (Abcam, Cambridge, Great Britain) in the presence of 2.5 mM probenecid (Sigma-Aldrich, Steinheim, Germany) the day after transfection[13],[41]. 1 h after loading, cells were washed with C1 buffer using a BioTek Cell Washer, incubated in the dark for half an hour and washed again. For automated agonist application and measurement of fluorescence changes, a FLIPR^TETRA device (Molecular Devices, San José, United States) was used. Viability of cells was tested by application of 100 nM Somatostatin 14 (Bachem, Bubendorf, Switzerland)[42].
Measured data were negative control corrected by subtracting the signal of the mock-transfected cells and exported to Microsoft Excel using the FLIPR software ScreenWorks 4.2. In Microsoft Excel software, standardization of maximum fluorescence intensities to the basal fluorescence and normalization to the buffer-only control was done to calculate the relative fluorescence changes (ΔF/F).
Initial screening experiments performed in duplicate wells were confirmed by at least one replication and representative traces were selected for display. All dose-response relationships were determined by three independent experiments (biological replicates) performed in duplicates (technical replicates). Threshold concentrations, defined as lowest substance concentrations leading to statistically significant elevated fluorescence changes in receptor-transfected cells compared with empty vector-transfected cells, were determined using SigmaPlot with Student’s t-test to evaluate statistical significance (p < 0.01).

## C[C@H](CCC(=O)O)[C@H]1CC[C@H]2[C@@H]3[C@H](O)C[C@@H]4C[C@H](O)CC[C@]4(C)[C@H]3C[C@H](O)[C@]12C [Cholic Acid, cholic acid]
TAS2R14, bile acids, mean
  Efficacy = maximal amplitude (ΔF/F): 0.2451
TAS2R14, bile acids, single replicates, listed as CA
  Efficacy (maximal amplitude ΔF/F), individual data points: 0.2582 and 0.2878 and 0.1894
Time (s) 0
  RLU: 0 RLU
Time (s) 2 (Taurocholic Acid 2.016)
  RLU: 8.733 RLU
Time (s) 4 (Taurocholic Acid 4.016)
  RLU: -17.1002 RLU
Time (s) 6 (Taurocholic Acid 6.016)
  RLU: -14.5682 RLU
Time (s) 8 (Taurocholic Acid 8.016)
  RLU: -36.4848 RLU
Time (s) 12 (Taurocholic Acid 12.016)
  RLU: -26.3442 RLU
Time (s) 14 (Taurocholic Acid 14.016)
  RLU: -33.528 RLU
Time (s) 16 (Taurocholic Acid 16.016)
  RLU: -31.0627 RLU
Time (s) 18 (Taurocholic Acid 18.016)
  RLU: -30.2662 RLU
Time (s) 18.797 (Chenodeoxycholic Acid 18.765)
  RLU: -22.7559 RLU
Time (s) 20.797 (Chenodeoxycholic Acid 20.781)
  RLU: -44.5987 RLU
Time (s) 22.797 (Chenodeoxycholic Acid 22.781)
  RLU: 9.863 RLU
Time (s) 24.797 (Chenodeoxycholic Acid 24.781)
  RLU: -6.39 RLU
Time (s) 26.797 (Chenodeoxycholic Acid 26.781)
  RLU: 16.5716 RLU
Time (s) 28.797 (Chenodeoxycholic Acid 28.781)
  RLU: 41.6203 RLU
Time (s) 30.797 (Chenodeoxycholic Acid 30.781)
  RLU: 60.9467 RLU
Time (s) 32.797 (Chenodeoxycholic Acid 32.781)
  RLU: 99 RLU
Time (s) 34.797 (Chenodeoxycholic Acid 34.781)
  RLU: 154.774 RLU
Time (s) 36.797 (Chenodeoxycholic Acid 36.781)
  RLU: 189.099 RLU
Time (s) 38.797 (Chenodeoxycholic Acid 38.781)
  RLU: 207.548 RLU
Time (s) 40.797 (Chenodeoxycholic Acid 40.781)
  RLU: 286.95 RLU
Time (s) 42.797 (Chenodeoxycholic Acid 42.781)
  RLU: 332.949 RLU
Time (s) 44.797 (Chenodeoxycholic Acid 44.781)
  RLU: 381.413 RLU
Time (s) 46.797 (Chenodeoxycholic Acid 46.781)
  RLU: 432.303 RLU
Time (s) 48.797 (Chenodeoxycholic Acid 48.781)
  RLU: 481.551 RLU
Time (s) 50.797 (Chenodeoxycholic Acid 50.781)
  RLU: 522.709 RLU
Time (s) 52.797 (Chenodeoxycholic Acid 52.781)
  RLU: 573.985 RLU
Time (s) 54.797 (Chenodeoxycholic Acid 54.781)
  RLU: 600.804 RLU
Time (s) 56.797 (Chenodeoxycholic Acid 56.781)
  RLU: 603.138 RLU
Time (s) 58.797 (Chenodeoxycholic Acid 58.781)
  RLU: 677.301 RLU
Time (s) 60.797 (Chenodeoxycholic Acid 60.781)
  RLU: 689.232 RLU
Time (s) 62.797 (Chenodeoxycholic Acid 62.781)
  RLU: 740.761 RLU
Time (s) 64.797 (Chenodeoxycholic Acid 64.781)
  RLU: 760.673 RLU
Time (s) 66.797 (Chenodeoxycholic Acid 66.781)
  RLU: 793.47 RLU
Time (s) 68.797 (Chenodeoxycholic Acid 68.781)
  RLU: 795.682 RLU
Time (s) 70.797 (Chenodeoxycholic Acid 70.781)
  RLU: 846.508 RLU
Time (s) 72.797 (Chenodeoxycholic Acid 72.781)
  RLU: 873.655 RLU
Time (s) 74.797 (Chenodeoxycholic Acid 74.781)
  RLU: 945.307 RLU
Time (s) 76.797 (Chenodeoxycholic Acid 76.781)
  RLU: 951.601 RLU
Time (s) 78.797 (Chenodeoxycholic Acid 78.781)
  RLU: 969.484 RLU
Time (s) 80.797 (Chenodeoxycholic Acid 80.781)
  RLU: 1026.08 RLU
Time (s) 82.797 (Chenodeoxycholic Acid 82.781)
  RLU: 1051.68 RLU
Time (s) 84.797 (Chenodeoxycholic Acid 84.781)
  RLU: 1028.13 RLU
Time (s) 86.797 (Chenodeoxycholic Acid 86.781)
  RLU: 1075.38 RLU
Time (s) 88.797 (Chenodeoxycholic Acid 88.781)
  RLU: 1071.24 RLU
Time (s) 90.797 (Chenodeoxycholic Acid 90.781)
  RLU: 1092.31 RLU
Time (s) 92.797 (Chenodeoxycholic Acid 92.781)
  RLU: 1143.7 RLU
Time (s) 94.797 (Chenodeoxycholic Acid 94.781)
  RLU: 1154.9 RLU
Time (s) 96.797 (Chenodeoxycholic Acid 96.781)
  RLU: 1163.63 RLU
Time (s) 98.797 (Chenodeoxycholic Acid 98.781)
  RLU: 1184.89 RLU
Time (s) 100.797 (Chenodeoxycholic Acid 100.781)
  RLU: 1211.25 RLU
Time (s) 102.797 (Chenodeoxycholic Acid 102.781)
  RLU: 1207.36 RLU
Time (s) 104.797 (Chenodeoxycholic Acid 104.781)
  RLU: 1232.88 RLU
Time (s) 106.797 (Chenodeoxycholic Acid 106.781)
  RLU: 1256.04 RLU
Time (s) 108.797 (Chenodeoxycholic Acid 108.781)
  RLU: 1236.19 RLU
Time (s) 110.797 (Chenodeoxycholic Acid 110.781)
  RLU: 1242.72 RLU
Time (s) 112.797 (Chenodeoxycholic Acid 112.781)
  RLU: 1266.26 RLU
Time (s) 114.797 (Chenodeoxycholic Acid 114.781)
  RLU: 1269.15 RLU
Time (s) 116.797 (Chenodeoxycholic Acid 116.781)
  RLU: 1265.61 RLU
Time (s) 118.797 (Chenodeoxycholic Acid 118.781)
  RLU: 1260.33 RLU
Time (s) 120.797 (Chenodeoxycholic Acid 120.781)
  RLU: 1305.24 RLU
Time (s) 122.797 (Chenodeoxycholic Acid 122.781)
  RLU: 1269.8 RLU
Time (s) 124.797 (Chenodeoxycholic Acid 124.781)
  RLU: 1271.64 RLU
Time (s) 126.797 (Chenodeoxycholic Acid 126.781)
  RLU: 1263.68 RLU
Time (s) 128.797 (Chenodeoxycholic Acid 128.781)
  RLU: 1291.8 RLU
Time (s) 130.797 (Chenodeoxycholic Acid 130.781)
  RLU: 1262.68 RLU
Time (s) 132.797 (Chenodeoxycholic Acid 132.781)
  RLU: 1269.55 RLU
Time (s) 134.797 (Chenodeoxycholic Acid 134.781)
  RLU: 1262.84 RLU
Time (s) 136.797 (Chenodeoxycholic Acid 136.781)
  RLU: 1277.95 RLU
Time (s) 137.562 (Taurocholic Acid 137.563, Chenodeoxycholic Acid 137.546)
  RLU: 1261.13 RLU
Time (s) 143.578 (Taurocholic Acid 143.563, Chenodeoxycholic Acid 143.546)
  RLU: 1235.79 RLU
Time (s) 149.578 (Taurocholic Acid 149.563, Chenodeoxycholic Acid 149.546)
  RLU: 1235.83 RLU
Time (s) 155.578 (Taurocholic Acid 155.563, Chenodeoxycholic Acid 155.546)
  RLU: 1156.37 RLU
Time (s) 161.578 (Taurocholic Acid 161.563, Chenodeoxycholic Acid 161.546)
  RLU: 1154.38 RLU
Time (s) 167.578 (Taurocholic Acid 167.563, Chenodeoxycholic Acid 167.546)
  RLU: 1122.87 RLU
Time (s) 173.578 (Taurocholic Acid 173.563, Chenodeoxycholic Acid 173.546)
  RLU: 1009.37 RLU
Time (s) 179.578 (Taurocholic Acid 179.563, Chenodeoxycholic Acid 179.546)
  RLU: 994.85 RLU
Time (s) 191.578 (Taurocholic Acid 191.563, Chenodeoxycholic Acid 191.546)
  RLU: 855.583 RLU
Time (s) 197.578 (Taurocholic Acid 197.563, Chenodeoxycholic Acid 197.546)
  RLU: 818.047 RLU
Time (s) 209.578 (Taurocholic Acid 209.563, Chenodeoxycholic Acid 209.546)
  RLU: 723.754 RLU
Time (s) 221.578 (Taurocholic Acid 221.563, Chenodeoxycholic Acid 221.546)
  RLU: 629.159 RLU
Time (s) 233.578 (Taurocholic Acid 233.563, Chenodeoxycholic Acid 233.546)
  RLU: 528.668 RLU
Time (s) 239.578 (Taurocholic Acid 239.563, Chenodeoxycholic Acid 239.546)
  RLU: 477.512 RLU
Time (s) 245.578 (Taurocholic Acid 245.563, Chenodeoxycholic Acid 245.546)
  RLU: 438.571 RLU
Time (s) 293.578 (Taurocholic Acid 293.563, Chenodeoxycholic Acid 293.546)
  RLU: 221.346 RLU
Time (s) 299.578 (Taurocholic Acid 299.563, Chenodeoxycholic Acid 299.546)
  RLU: 202.892 RLU
Time (s) 305.578 (Taurocholic Acid 305.563, Chenodeoxycholic Acid 305.546)
  RLU: 181.254 RLU
Time (s) 311.578 (Taurocholic Acid 311.563, Chenodeoxycholic Acid 311.546)
  RLU: 152.075 RLU
Time (s) 317.578 (Taurocholic Acid 317.563, Chenodeoxycholic Acid 317.546)
  RLU: 165.461 RLU
Time (s) 323.578 (Taurocholic Acid 323.563, Chenodeoxycholic Acid 323.546)
  RLU: 152.075 RLU
Time (s) 329.578 (Taurocholic Acid 329.563, Chenodeoxycholic Acid 329.546)
  RLU: 111.269 RLU
Time (s) 335.578 (Taurocholic Acid 335.563, Chenodeoxycholic Acid 335.546)
  RLU: 88.8846 RLU
Time (s) 341.578 (Taurocholic Acid 341.563, Chenodeoxycholic Acid 341.546)
  RLU: 75.1088 RLU
Time (s) 347.578 (Taurocholic Acid 347.563, Chenodeoxycholic Acid 347.546)
  RLU: 60.0955 RLU
Time (s) 353.578 (Taurocholic Acid 353.563, Chenodeoxycholic Acid 353.546)
  RLU: 37.7794 RLU
Time (s) 359.578 (Taurocholic Acid 359.563, Chenodeoxycholic Acid 359.546)
  RLU: 47.6877 RLU
Lowest concentration with significantly increased fluorescence vs empty vector (p < 0.01)
  Activation threshold concentration TAS2R14: 300 µM
